In patent US20240158446A1, “CYCLIC COMPOUND HAVING SELECTIVE INHIBITORY ACTION ON KRAS OVER HRAS AND NRAS” (CHUGAI SEIYAKU KABUSHIKI KAISHA, priority 2021, published 2024):
Each block holds one compound with its values, some of them ahead of it.

Legend:
[1] = target: GDP-bound KRAS wild-type protein (Homo sapiens, UniProt P01116); experiment: Binding to KRAS by surface plasmon resonance (SPR), Single Cycle Kinetics; conditions: SPR Single Cycle Kinetics, GDP-bound KRAS wild-type protein, 1:1 binding model; read-out: KRAS KD
[2] = target: GDP-bound NRAS wild-type protein (Homo sapiens, UniProt P01111); experiment: Binding to NRAS by surface plasmon resonance (SPR), Single Cycle Kinetics; conditions: SPR, GDP-bound NRAS wild-type protein vs GDP-bound KRAS wild-type protein
[3] = target: GDP-bound HRAS wild-type protein (Homo sapiens, UniProt P01112); experiment: Binding to HRAS by surface plasmon resonance (SPR), Single Cycle Kinetics; conditions: SPR, GDP-bound HRAS wild-type protein vs GDP-bound KRAS wild-type protein
Sequence of GDP-bound HRAS wild-type protein (P01112 whole entry): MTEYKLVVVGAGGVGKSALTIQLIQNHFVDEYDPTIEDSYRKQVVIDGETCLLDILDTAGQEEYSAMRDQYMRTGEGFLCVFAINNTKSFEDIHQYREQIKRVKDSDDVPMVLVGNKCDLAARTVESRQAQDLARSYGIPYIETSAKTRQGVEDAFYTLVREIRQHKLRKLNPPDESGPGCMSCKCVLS

Sequence of GDP-bound KRAS wild-type protein (P01116 whole entry): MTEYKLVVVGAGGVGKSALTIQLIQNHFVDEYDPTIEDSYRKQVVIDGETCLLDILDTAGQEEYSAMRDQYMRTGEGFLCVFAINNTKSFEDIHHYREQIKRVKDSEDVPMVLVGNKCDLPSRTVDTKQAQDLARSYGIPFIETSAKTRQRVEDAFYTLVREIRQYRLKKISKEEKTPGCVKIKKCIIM
Sequence of GDP-bound NRAS wild-type protein (P01111 whole entry): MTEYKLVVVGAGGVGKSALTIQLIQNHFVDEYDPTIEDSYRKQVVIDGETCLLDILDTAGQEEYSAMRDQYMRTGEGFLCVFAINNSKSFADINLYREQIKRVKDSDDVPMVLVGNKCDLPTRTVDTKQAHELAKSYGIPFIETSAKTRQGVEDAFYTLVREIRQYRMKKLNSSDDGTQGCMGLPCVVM

SMILES: CC[C@H](C)[C@@H]1NC(=O)[C@H](CC(C)C)N(C)C(=O)C[C@@H](C(=O)N2CCOCC2)NC(=O)[C@H](C2CCCC2)N(C)C(=O)C2(CCCC2)NC(=O)[C@@H]2CCCN2C(=O)[C@H](CCc2cc(F)c(C(F)(F)F)c(F)c2)NC(=O)CN(C)C(=O)[C@H](Cc2ccc(C(F)(F)F)cc2)N2CCCCC[C@@H](C2=O)N(C)C(=O)CN(C)C1=O [PP0479]
Kd [1]: 29 nM
NRAS/KRAS (ratio of KD value with respect to NRAS to KD value with respect to KRAS) [2]: B (a compound having 3 or more and less than 10 is denoted as B)
HRAS/KRAS (ratio of KD value with respect to HRAS to KD value with respect to KRAS) [3]: B (a compound having 3 or more and less than 10 is denoted as B)

SMILES: CC[C@H](C)[C@@H]1NC(=O)[C@H](CC(C)C)N(C)C(=O)C[C@@H](C(=O)N2CCOCC2)N(C)C(=O)[C@H](C2CCCC2)N(C)C(=O)C2(CCCC2)NC(=O)[C@@H]2CCCN2C(=O)[C@H](CCc2cc(F)c(C(F)(F)F)c(F)c2)NC(=O)CN(C)C(=O)[C@H](Cc2ccc(C(F)(F)F)cc2)N2CCCCC[C@@H](C2=O)N(C)C(=O)CN(CC)C1=O [PP0483]
Kd [1]: 34 nM
NRAS/KRAS (ratio of KD value with respect to NRAS to KD value with respect to KRAS) [2]: B (a compound having 3 or more and less than 10 is denoted as B)
HRAS/KRAS (ratio of KD value with respect to HRAS to KD value with respect to KRAS) [3]: B (a compound having 3 or more and less than 10 is denoted as B)

SMILES: CC[C@H](C)[C@@H]1NC(=O)[C@H](CC(C)C)N(C)C(=O)C[C@@H](C(=O)N2CCOCC2)N(C)C(=O)[C@H](C2CCCC2)N(C)C(=O)C2(CCCC2)NC(=O)[C@@H]2CCCN2C(=O)[C@H](CCc2cc(F)c(C(F)(F)F)c(F)c2)NC(=O)CN(C)C(=O)[C@H](Cc2ccc(C(F)(F)F)cc2)N2CCCCC[C@@H](C2=O)N(C)C(=O)[C@@H]2CCCN2C1=O [PP0485]
Kd [1]: 28 nM
NRAS/KRAS (ratio of KD value with respect to NRAS to KD value with respect to KRAS) [2]: A (a compound having 10 or more and less than 20 is denoted as A)
HRAS/KRAS (ratio of KD value with respect to HRAS to KD value with respect to KRAS) [3]: B (a compound having 3 or more and less than 10 is denoted as B)

SMILES: CC[C@H](C)[C@@H]1NC(=O)[C@H](C)N(C)C(=O)C[C@@H](C(=O)N2CCOCC2)N(C)C(=O)[C@H](C2CCCC2)N(C)C(=O)C2(CCCC2)NC(=O)[C@@H]2CCCN2C(=O)[C@H](CCc2cc(F)c(C(F)(F)F)c(F)c2)NC(=O)CN(C)C(=O)[C@H](Cc2ccc(C(F)(F)F)cc2)N2CCCCC[C@@H](C2=O)N(C)C(=O)CN(C)C1=O [PP0487]
Kd [1]: 1.7 nM
NRAS/KRAS (ratio of KD value with respect to NRAS to KD value with respect to KRAS) [2]: B (a compound having 3 or more and less than 10 is denoted as B)
HRAS/KRAS (ratio of KD value with respect to HRAS to KD value with respect to KRAS) [3]: B (a compound having 3 or more and less than 10 is denoted as B)

SMILES: CC[C@H](C)[C@@H]1NC(=O)[C@H](CC)N(C)C(=O)C[C@@H](C(=O)N2CCOCC2)N(C)C(=O)[C@H](C2CCCC2)N(C)C(=O)C2(CCCC2)NC(=O)[C@@H]2CCCN2C(=O)[C@H](CCc2cc(F)c(C(F)(F)F)c(F)c2)NC(=O)CN(C)C(=O)[C@H](Cc2ccc(C(F)(F)F)cc2)N2CCCCC[C@@H](C2=O)N(C)C(=O)CN(C)C1=O [PP0488]
Kd [1]: 2.8 nM
NRAS/KRAS (ratio of KD value with respect to NRAS to KD value with respect to KRAS) [2]: A (a compound having 10 or more and less than 20 is denoted as A)
HRAS/KRAS (ratio of KD value with respect to HRAS to KD value with respect to KRAS) [3]: B (a compound having 3 or more and less than 10 is denoted as B)

SMILES: CC[C@H](C)[C@@H]1NC(=O)[C@H](CC(C)C)N(C)C(=O)C[C@@H](C(=O)N2CCOCC2)N(C)C(=O)[C@H](C2CCCC2)N(C)C(=O)C2(CCCC2)NC(=O)[C@@H]2CC(F)(F)CN2C(=O)[C@H](CCc2cc(F)c(C(F)(F)F)c(F)c2)NC(=O)CN(C)C(=O)[C@H](Cc2ccc(C(F)(F)F)cc2)N2CCCCC[C@@H](C2=O)N(C)C(=O)CN(C)C1=O [PP0491]
Kd [1]: 1.1 nM
NRAS/KRAS (ratio of KD value with respect to NRAS to KD value with respect to KRAS) [2]: B (a compound having 3 or more and less than 10 is denoted as B)
HRAS/KRAS (ratio of KD value with respect to HRAS to KD value with respect to KRAS) [3]: B (a compound having 3 or more and less than 10 is denoted as B)

SMILES: CC[C@H](C)[C@@H]1NC(=O)[C@H](CC(C)C)N(C)C(=O)C[C@@H](C(=O)N2CCOCC2)N(C)C(=O)[C@H](C2CCCC2)N(C)C(=O)C2(CCCC2)NC(=O)[C@@H]2C[C@H](OC)CN2C(=O)[C@H](CCc2cc(F)c(C(F)(F)F)c(F)c2)NC(=O)CN(C)C(=O)[C@H](Cc2ccc(C(F)(F)F)cc2)N2CCCCC[C@@H](C2=O)N(C)C(=O)CN(C)C1=O [PP0495]
Kd [1]: 5.1 nM
NRAS/KRAS (ratio of KD value with respect to NRAS to KD value with respect to KRAS) [2]: A (a compound having 10 or more and less than 20 is denoted as A)
HRAS/KRAS (ratio of KD value with respect to HRAS to KD value with respect to KRAS) [3]: B (a compound having 3 or more and less than 10 is denoted as B)

More lines, in order of falling Kd [1], values ahead:

Kd [1]: 850 nM
SMILES: CC[C@H](C)[C@@H]1NC(=O)[C@H](CC(C)C)N(C)C(=O)C[C@@H](C(=O)N2CCOCC2)N(C)C(=O)[C@H](C2CCCC2)N(C)C(=O)C2(CCCC2)NC(=O)[C@@H]2CCCN2C(=O)[C@H](CCc2cc(F)c(C(F)(F)F)c(F)c2)NC(=O)CN(C)C(=O)[C@H](Cc2ccc(C(F)(F)F)cc2)N2CCCCC[C@@H](C2=O)N(C)C(=O)[C@H](C)NC1=O [PP0481]
NRAS/KRAS (ratio of KD value with respect to NRAS to KD value with respect to KRAS) [2]: B (a compound having 3 or more and less than 10 is denoted as B)
HRAS/KRAS (ratio of KD value with respect to HRAS to KD value with respect to KRAS) [3]: B (a compound having 3 or more and less than 10 is denoted as B)

Kd [1]: 11 nM
SMILES: CC[C@H](C)[C@@H]1NC(=O)[C@H](CC(C)C)N(C)C(=O)C[C@@H](C(=O)N2CCOCC2)N(CC)C(=O)[C@H](C2CCCC2)N(C)C(=O)C2(CCCC2)NC(=O)[C@@H]2CCCN2C(=O)[C@H](CCc2cc(F)c(C(F)(F)F)c(F)c2)NC(=O)CN(C)C(=O)[C@H](Cc2ccc(C(F)(F)F)cc2)N2CCCCC[C@@H](C2=O)N(C)C(=O)CN(C)C1=O [PP0477]
NRAS/KRAS (ratio of KD value with respect to NRAS to KD value with respect to KRAS) [2]: A (a compound having 10 or more and less than 20 is denoted as A)
HRAS/KRAS (ratio of KD value with respect to HRAS to KD value with respect to KRAS) [3]: A (a compound having 10 or more and less than 20 is denoted as A)

Kd [1]: 4.8 nM
SMILES: CC[C@H](C)[C@@H]1NC(=O)[C@H](CC(C)C)N(C)C(=O)C[C@@H](C(=O)N2CCOCC2)N(C)C(=O)[C@H](C2CCCC2)N(C)C(=O)C2(CC2)NC(=O)[C@@H]2CCCN2C(=O)[C@H](CCc2cc(F)c(C(F)(F)F)c(F)c2)NC(=O)CN(C)C(=O)[C@H](Cc2ccc(C(F)(F)F)cc2)N2CCCCC[C@@H](C2=O)N(C)C(=O)CN(C)C1=O [PP0496]
NRAS/KRAS (ratio of KD value with respect to NRAS to KD value with respect to KRAS) [2]: B (a compound having 3 or more and less than 10 is denoted as B)
HRAS/KRAS (ratio of KD value with respect to HRAS to KD value with respect to KRAS) [3]: B (a compound having 3 or more and less than 10 is denoted as B)

Kd [1]: 3.2 nM
SMILES: CC[C@H](C)[C@@H]1NC(=O)[C@H](CC(C)C)N(C)C(=O)C[C@@H](C(=O)N2CCOCC2)N(C)C(=O)[C@H](C2CCCC2)N(C)C(=O)C2(CCCC2)NC(=O)[C@@H]2CCCN2C(=O)[C@H](CCc2cc(F)c(C(F)(F)F)c(F)c2)NC(=O)CN(C)C(=O)[C@H](Cc2ccc(C(F)(F)F)cc2)N2CCCCC[C@@H](C2=O)N(C)C(=O)[C@@H]2CCN2C1=O [PP0484]
NRAS/KRAS (ratio of KD value with respect to NRAS to KD value with respect to KRAS) [2]: A (a compound having 10 or more and less than 20 is denoted as A)
HRAS/KRAS (ratio of KD value with respect to HRAS to KD value with respect to KRAS) [3]: B (a compound having 3 or more and less than 10 is denoted as B)

Kd [1]: 2.4 nM
SMILES: CC[C@H](C)[C@@H]1NC(=O)[C@H](CC(C)C)N(C)C(=O)C[C@@H](C(=O)N2CCOCC2)N(C)C(=O)[C@H](C2CCCC2)N(C)C(=O)C2(CCCC2)NC(=O)[C@@H]2CCCN2C(=O)[C@H](CCc2cc(F)c(C(F)(F)F)c(F)c2)NC(=O)CN(C)C(=O)[C@H](Cc2ccc(C(F)(F)F)cc2)N2CCCCC[C@@H](C2=O)N(C)C(=O)CN(C)C1=O [PP0490]
NRAS/KRAS (ratio of KD value with respect to NRAS to KD value with respect to KRAS) [2]: B (a compound having 3 or more and less than 10 is denoted as B)
HRAS/KRAS (ratio of KD value with respect to HRAS to KD value with respect to KRAS) [3]: B (a compound having 3 or more and less than 10 is denoted as B)

Kd [1]: 2 nM
SMILES: CC[C@H](C)[C@@H]1NC(=O)[C@H](CC(C)C)N(C)C(=O)C[C@@H](C(=O)N2CCOCC2)N(C)C(=O)[C@H](C2CCCC2)N(C)C(=O)C2(CCCC2)NC(=O)[C@@H]2CC(=O)CN2C(=O)[C@H](CCc2cc(F)c(C(F)(F)F)c(F)c2)NC(=O)CN(C)C(=O)[C@H](Cc2ccc(C(F)(F)F)cc2)N2CCCCC[C@@H](C2=O)N(C)C(=O)CN(C)C1=O [PP0493]
NRAS/KRAS (ratio of KD value with respect to NRAS to KD value with respect to KRAS) [2]: B (a compound having 3 or more and less than 10 is denoted as B)
HRAS/KRAS (ratio of KD value with respect to HRAS to KD value with respect to KRAS) [3]: B (a compound having 3 or more and less than 10 is denoted as B)

Kd [1]: 1.2 nM
SMILES: CCO[C@@H]1C[C@H]2C(=O)NC3(CCCC3)C(=O)N(C)[C@@H](C3CCCC3)C(=O)N(C)[C@H](C(=O)N3CCOCC3)CC(=O)N(C)[C@@H](CC(C)C)C(=O)N[C@@H]([C@@H](C)CC)C(=O)N(C)CC(=O)N(C)[C@H]3CCCCCN(C3=O)[C@@H](Cc3ccc(C(F)(F)F)cc3)C(=O)N(C)CC(=O)N[C@@H](CCc3cc(F)c(C(F)(F)F)c(F)c3)C(=O)N2C1 [PP0492]
NRAS/KRAS (ratio of KD value with respect to NRAS to KD value with respect to KRAS) [2]: B (a compound having 3 or more and less than 10 is denoted as B)
HRAS/KRAS (ratio of KD value with respect to HRAS to KD value with respect to KRAS) [3]: B (a compound having 3 or more and less than 10 is denoted as B)

Kd [1]: 0.2 nM
SMILES: CCO[C@@H]1C[C@H]2C(=O)NC3(CCC3)C(=O)N(C)[C@@H](C3CCCC3)C(=O)N(C)[C@H](C(=O)N(C)C)CC(=O)N(C)[C@@H](C)C(=O)N[C@@H]([C@@H](C)CC)C(=O)N(C)CC(=O)N(C)[C@H]3CCCCCN(C3=O)[C@@H](Cc3ccc(C(F)(F)F)cc3)C(=O)N(C)CC(=O)N[C@@H](CCc3cc(F)c(C(F)(F)F)c(F)c3)C(=O)N2C1 [PP0476]
NRAS/KRAS (ratio of KD value with respect to NRAS to KD value with respect to KRAS) [2]: B (a compound having 3 or more and less than 10 is denoted as B)
HRAS/KRAS (ratio of KD value with respect to HRAS to KD value with respect to KRAS) [3]: B (a compound having 3 or more and less than 10 is denoted as B)
